In assay [1] the test system is Canis familiaris. The assay can be described thus: In vivo dose causing a 100% increase in right ventricular contractile force in mongrel dogs. Format: functional, Canis lupus familiaris, Heart right ventricle.
Assay [2] relates to Canis familiaris. The assay can be described thus: In vivo dose causing a 50% increase in right ventricular contractile force in mongrel dogs. Format: functional, Canis lupus familiaris, Heart right ventricle.
The species entered for assay [3] is Canis familiaris. In words: Inotropic selectivity was assessed by normalizing changes in heart rate to the 50% levels in mongrel dogs. Format: functional, Canis lupus familiaris.
For assay [4], the species on record is Canis familiaris. In words: Cardioselectivity was estimated by normalizing changes in diastolic blood pressure to the 100% levels of contractile force in mongrel dogs. Format: functional, Canis lupus familiaris, Artery.
The species entered for assay [5] is Canis familiaris. In words: Cardioselectivity was estimated by normalizing changes in diastolic blood pressure to the 50% levels of contractile force in mongrel dogs. Format: functional, Canis lupus familiaris, Artery.
The species named for assay [6] is Canis familiaris. In words: Inotropic selectivity was assessed by normalizing changes in heart rate to the 100% levels in mongrel dogs. Format: functional, Canis lupus familiaris.

We go through seven molecules from ChEMBL document CHEMBL1122027, “N-Aralkyl substitution of 2-amino-5,6- and -6,7-dihydroxy-1,2,3,4-tetrahydronaphthalenes. 2. Derivatives of a hypotensive-positive inotropic agent” (1982).

As to `CC(Cc1ccc(O)c(O)c1)NC1CCc2cc(O)c(O)cc2C1` (centres undefined), the Inotropic potency in the assay on Canis familiaris [1] was 27 nM/kg; in the assay with Canis familiaris [2], 11.4 nM/kg. The “Delta HR” value in the assay filed under Canis familiaris [3] is listed as -5 beats min-1; in the assay listed under Canis familiaris [6], 4 beats min-1. Moreover, the Delta blood pressure in the assay listed under Canis familiaris [4] is -30 mmHg; in the assay filed under Canis familiaris [5] it was -39 mmHg.
`CC(Cc1ccc(O)c(O)c1)NC1CCc2cc(O)ccc2C1` (centres undefined): the results for the Inotropic potency in the assay on Canis familiaris [1] and in the assay on Canis familiaris [2] were 85 nM/kg and 25 nM/kg, respectively. The “Delta HR” value in the assay listed under Canis familiaris [3] is 30 beats min-1; in the assay listed under Canis familiaris [6], 49 beats min-1. In addition, the figures for the Delta blood pressure in the assay listed under Canis familiaris [4] and in the assay listed under Canis familiaris [5] were -66 mmHg and -46 mmHg, respectively.
For `Oc1cc2c(cc1O)CC(NC1CCc3c(ccc(O)c3O)C1)CC2` (centres undefined), the Inotropic potency is 590 nM/kg with Canis familiaris [1] and 210 nM/kg in the assay on Canis familiaris [2]. The figures for the “Delta HR” value in the assay listed under Canis familiaris [3] and in the assay filed under Canis familiaris [6] were 24 beats min-1 and 31 beats min-1, respectively. Moreover, the Delta blood pressure was -55 mmHg in the assay filed under Canis familiaris [4] and -61 mmHg in the assay filed under Canis familiaris [5].
`CC(Cc1ccc(O)cc1)NC1CCc2cc(O)c(O)cc2C1` (centres undefined): the Inotropic potency in the assay with Canis familiaris [2] was 680 nM/kg. Besides, the “Delta HR” value in the assay filed under Canis familiaris [3] was found to be 23 beats min-1. Moreover, the Delta blood pressure in the assay listed under Canis familiaris [5] is -25 mmHg.
Consider `CC(Cc1ccc(O)c(O)c1)NCCc1ccc(O)c(O)c1` (centres undefined), for which the results for the Inotropic potency in the assay with Canis familiaris [1] and in the assay on Canis familiaris [2] were 13 nM/kg and 4 nM/kg, respectively. Moreover, the “Delta HR” value in the assay filed under Canis familiaris [3] is reported as 26 beats min-1; in the assay filed under Canis familiaris [6], 39 beats min-1. Also, the Delta blood pressure in the assay filed under Canis familiaris [4] was -34 mmHg; in the assay filed under Canis familiaris [5], -19 mmHg.
`COc1ccc(CC(C)NCCc2ccc(O)c(O)c2)cc1OC` (centres undefined): the figures for the Inotropic potency with Canis familiaris [1] and in the assay on Canis familiaris [2] were 1100 nM/kg and 490 nM/kg, respectively. Further, the “Delta HR” value in the assay listed under Canis familiaris [3] is on record as 10 beats min-1; in the assay filed under Canis familiaris [6], 17 beats min-1. Also, the Delta blood pressure is on record as -31 mmHg in the assay listed under Canis familiaris [4] and -24 mmHg in the assay filed under Canis familiaris [5].
Turning to `Oc1cc2c(cc1O)CC(NC1CCc3cc(O)c(O)cc3C1)CC2` (centres undefined), the Inotropic potency was 2650 nM/kg in the assay on Canis familiaris [1] and 961 nM/kg in the assay on Canis familiaris [2]. Besides, the “Delta HR” value is 31 beats min-1 in the assay filed under Canis familiaris [3] and 62 beats min-1 in the assay listed under Canis familiaris [6]. Moreover, the Delta blood pressure is reported as 84 mmHg in the assay filed under Canis familiaris [4] and -78 mmHg in the assay listed under Canis familiaris [5].
